Experimental data reported in ChEMBL document CHEMBL1154228, “Photoregulation of thrombin aptamer activity using Bhc caging strategy” (Bioorg Med Chem Lett, 2009).

Legend:
Prothrombin [1] = biological target: T1, Prothrombin (Homo sapiens, UniProt P00734); assay: Binding affinity to thrombin by surface plasmon resonance assay
Prothrombin [2] = biological target: T1, Prothrombin; assay: Binding affinity to thrombin in presence of 100 mJ/cm'2 UV light by surface plasmon resonance assay

Work on Cc1cn([C@H]2C[C@H](OP(=O)(O)OC[C@H]3O[C@@H](n4cnc5c(=O)[nH]c(N)nc54)[C@H](O)[C@@H]3OP(=O)(O)OC[C@H]3O[C@@H](n4cnc5c(=O)[nH]c(N)nc54)[C@H](O)[C@@H]3OP(=O)(O)OC[C@H]3O[C@@H](n4cc(C)c(=O)[nH]c4=O)C[C@@H]3OP(=O)(O)OC[C@H]3O[C@@H](n4cc(C)c(=O)[nH]c4=O)C[C@@H]3OP(=O)(O)OC[C@H]3O[C@@H](n4cnc5c(=O)[nH]c(N)nc54)[C@H](O)[C@@H]3OP(=O)(O)OC[C@H]3O[C@@H](n4cnc5c(=O)[nH]c(N)nc54)[C@H](O)[C@@H]3O)[C@@H](COP(=O)(O)O[C@H]3[C@@H](O)[C@H](n4cnc5c(=O)[nH]c(N)nc54)O[C@@H]3COP(=O)(O)O[C@H]3C[C@H](n4cc(C)c(=O)[nH]c4=O)O[C@@H]3COP(=O)(O)O[C@H]3[C@@H](O)[C@H](n4cnc5c(=O)[nH]c(N)nc54)O[C@@H]3COP(=O)(O)O[C@H]3[C@@H](O)[C@H](n4cnc5c(=O)[nH]c(N)nc54)O[C@@H]3COP(=O)(O)O[C@H]3C[C@H](n4cc(C)c(=O)[nH]c4=O)O[C@@H]3COP(=O)(O)O[C@H]3C[C@H](n4cc(C)c(=O)[nH]c4=O)O[C@@H]3COP(=O)(O)O[C@H]3[C@@H](O)[C@H](n4cnc5c(=O)[nH]c(N)nc54)O[C@@H]3COP(=O)(O)O[C@H]3[C@@H](O)[C@H](n4cnc5c(=O)[nH]c(N)nc54)O[C@@H]3CO)O2)c(=O)[nH]c1=O [THROMBIN APTAMER] yielded a Kd (Prothrombin [1]) of 320 nM and a Kd (Prothrombin [2]) of 390 nM.
